Data as given in patent EP0151577B1 (priority 1983, dated 1984).

Columns and labels:
souris [1] = experiment: Inclined screen test (neurotoxicity); details: 100 mg/kg i.p., 15 min after administration, Tableau 3
Description: (§4) Les mesures ont été faites a 15, 30 et 60 minutes après I'administration par voie intrapéritonéale (i.p.) a des souris.

souris [2] = experiment: Anticonvulsant activity, MES; type: in vivo; details: for Activité anticonvulsivante 1. MES: 100 mg/kg i.p., 15 min after administration, Tableau 3
Excerpt: Activite anticonvulsivante (MES): % de protection Temps de sommeil au pentobarbital: WYATT, R.J., ZARKONE, V. […], K., DEMENT, W.C., SMYDER, F. and SJOERDSMA, A., Effects of 5-Hydroxytryptophan on the sleep of normal human subjects. Electroencephaly and Clinical Neurophysiology 30, 5051971.

souris [3] = experiment: Anti-stress activity: swimming endurance; type: in vivo; details: 100 mg/kg i.p., souris observed up to 540 min; témoins 385 ± 31 min
Description: Au tableau 4, la lettre N designe le nombre d'animaux (souris). Un astérisque indique une activite importante. Deux astérisques indiquent une possibilité d'activité positive. Dans I'essai d'endurance a la nage, on a observe les souris jusqu'à 540 minutes, la durée moyenne de nage pour les souris témoins étant de 385 ± 31 minutes.
(N) - représente le nombre d'animaux * - activité importante ** - activite positive possible Pour I'endurance a la nage, les souris ont été observées jusqu'à 540 min, la durée moyenne de nage chez les souris témoins était de 385 + 31 min. *** - La leucocytose a été induite par 0,1 ml de lait (sous-cutanée) avant traitement avec le medicament.

souris [4] = experiment: Tremor score in mice pretreated with a MAO inhibitor (Harmaline); type: in vivo; details: 75 mg/kg S.C., 1 h after Harmaline 25 mg/kg P.O., 5 souris, scored 5 to 75 min
Description: Les conditions expérimentales étaient les suivantes:
Chez des souris prétraitées par un inhibiteur de la MAO (Harmaline 25 mg/kg/ P.O.), I'injection de 5HTP (1 heure après l'IMAO) entraîne l'apparition de tremblements plus ou moins généralisés, accompagnés ou non d'hyperactivité motrice et qui sont dus a I'accumulation de sérotonine non dégradée au niveau des récepteurs post-synaptiques cérébraux. On peut établir pour chaque souris une cotation chiffrée suivant l'intensité des symptômes observes au cours du temps (cotation toutes les 5 min. entre la 5ème et la 45ème min. après I'injection de 5 HTP puis toutes les 15 min. jusqu'à la 75ème min.).
On additionne en une score total tous les chiffres obtenus aux différents temps sur des lots de 5 ou 10 souris.
Les actions du 5 HTP ont été comparées a celles du DF-5HTP.

[5] = tested on: réponse à l'obstruction de la carotide; experiment: Cardiovascular activity: response to carotid occlusion (CO); type: in vivo
Excerpt: (§1) Le protocole experimental était celui décrit dans "Sugar Derivatives of Indolamines. part V: Cardiovascular Effects and "Anti-stress" Activity of Desoxyfructose Derivative of Serotonin and 5-Metho-xy- tryptamin", L. Mester, M. Mester, K.P. Bhargava, C. Labrid, G. Dureng and M. Cheucle, THROMBOSIS […], 15,245,1979.

souris [6] = experiment: Vertical pole climbing test; type: in vivo; details: 100 mg/kg i.p., 15 min after administration
souris [7] = experiment: General pharmacological profile: respiratory rate; type: in vivo; details: for Cadence respira-toire: souris; for Cadence respiratoire: 100 mg/kg i.p., 15 min after administration, Tableau 3
Excerpt: (§2) Activite motrice spontanée: MODIGH, K., Central and peripheral effects of 5-hydroxytryptophan on motor activity in mice. Psychopharmacologia (Berlin), 23, 48, 1972. Cadence respiratoire: […], S., and VALZELLI, L. Serotonin and cardiovascular system, Chapter 9, in "Serotonin", Elsevier Publ. Co. Amsterdam 1965.
COHEN, Y. and BLANCHARD, P. Influence de la chelation du calcium sur les effets tensionnels de la sérotonine chez le chien. J. Physiol., 52, 569,1960.
BRAUNWALD, E. Control of myocardial oxygen consumption: Physiologic and clinical considerations. Am. J. Cardiol., 27 (4), 416,1971.

souris [8] = experiment: Catatonia; details: 100 mg/kg i.p., 15 min after administration
souris [9] = experiment: General pharmacological profile: spontaneous motor activity; type: in vivo
Excerpt: as §2

[10] = Acute toxicity, DL50 i.p.; type: in vivo, souris; details: mouse, in vivo, ip, read-out: DL50 (ip)en toxicité aigue
Description: (§3) La valeur DL50 i.p. pour tous ces derives a été trouvée voisine de 800 mg/kg et la valeur DL 50 i.v. est supérieure a 5 g/kg.

Tension sanguine = experiment: Cardiovascular activity: blood pressure; type: in vivo
Excerpt: as §1

souris [11] = experiment: Anticonvulsant activity, pentylenetetrazol; type: in vivo; details: 100 mg/kg i.p., 15 min after administration
souris [12] = experiment: Pentobarbital sleeping time; type: in vivo
Description: as §4

Rythme cardiaque = experiment: Cardiovascular activity: heart rate; type: in vivo
Excerpt: as §1

souris [13] = experiment: General pharmacological profile: defecation; details: 100 mg/kg i.p., 15 min after administration, Tableau 3
Description: as §4

souris [14] = experiment: Morphine test (antagonism); type: in vivo; details: 100 mg/kg i.p., 15 min after administration
souris [15] = experiment: General pharmacological profile: hypersensitivity to noise; details: 100 mg/kg i.p., 15 min after administration, Tableau 3
Description: as §4

souris [16] = experiment: Rotarod test; details: 100 mg/kg i.p.; témoin 11,3 ± 3,1
Description: as §4

M. Leprae = experiment: Incorporation of 3H-DOPA by M. leprae in vitro; type: cell-based, Mycobacterium leprae; details: 6 h
Excerpt: Le tableau 6 rassemble des résultats d'essai concernant l'activité du DF-5HTP sur l'incorporation de la DOPA dans les Mycobacteries de la lèpre. Le protocole experimental était celui décrit dans JAYARAMAN, P., […], P.R., MESTER, M. and MESTER, L. Inhibition of the incorporation of ^3H-DOPA in Mycobacterium leprae by Desoxyfructo-serotonin. Biochem. Pharm., 29, 2526,1980.
On a inoculé 5 x 10^6 M. leprae par tube; le milieu était un tampon phosphate à pH 6,8. La quantité de 3H-DOPA était de 1 µ. Ci/tube.
Protocole: Chaque tube de 0,5 ml est inocule de 5 x 10^6 M. leprae et de 1 µ Ci de ^3H-DOPA. Après 6 heures, I'incorporation de la DOPA radioactive est enregistrée en DPM selon la technique utilisée dans JAYARAMAN, P., […], P.R., MESTER, M. and MESTER, L. Inhibition of the Incorporation of ^3H-DOPA in Mycobacterium leprae by Desoxyfructo-serotonin. Biochem. Pharm., 29,2526,1980.

[17] = tested on: cellules des neuroblastomes; experiment: Inhibition of serotonin incorporation into neuroblastoma cells in vitro; type: cell-based
[18] = In vivo metabolism of radioactive compounds, hamster plasma; details: au bout de 4 heures, figure 2
Excerpt: La mesure de la radioactivite des diverses fractions isolées du sang des hamsters traités permet de caractériser les metabolites, lesquels sont ainsi isolés et identifies par électrophorèse. Les metabolites acides HIAA et IAA sont séparés ensemble.
On a porté le temps en abscisses (exprimé en heures) et en ordonnées le pourcentage du compose caractérisé dans le plasma.

[19] = tested on: 5-HT (dans tout le cerveau); experiment: Amount of serotonin (5-HT) in whole brain, spectrophotofluorometric; type: in vivo, souris; details: 160 mg/kg i.p., 15 min.; Solution Saline 60,0; mean of 4 souris
Excerpt: Les quantités de sérotonine ont été estimees par une méthode spectrophotofluorométrique, telle que décrite par Solomon et al. Biochem. Pharmacology 14, 831 (1965). Les résultats de ces essais sont rassemblés dans le Tableau 10 ci-après.
• * Chaque valeur représente la moyenne de quatre animaux d'experience (souris) • ** La concentration de 5-HT est exprimée par gramme de tissu frais (cerveau).

souris [20] = experiment: Acute toxicity, DL50 i.p.; type: in vivo
Description: as §3

souris [21] = experiment: Motor activity (Photactametre); type: in vivo; details: 100 mg/kg i.p., compared with 5HTP used as control
[22] = 100 mg/kg (ip), 15 min, Tableau 2
[23] = 10 mg par voie cérébroventriculaire
[24] = 100 mg/kg i.p., 15 min after administration, Tableau 3

N[C@@H](Cc1c[nH]c2ccc(O)cc12)C(=O)O [5-HTP, 5-hydroxytryptophane, reference compound]
Tamis incliné (souris [1]): Pas d'effet neurotoxique | Activité anticon-vulsivante MES % protection (souris [2]; 50 mg/kg (ip), 15 min): 20% | Activité anticon-vulsivante MES % protection (souris [2]; 50 mg/kg (ip), 30 min): 25% | Activité anticon-vulsivante MES % protection (souris [2]; 50 mg/kg (ip), 60 min): 25% | Activité anticon-vulsivante MES % protection (souris [2]; [22]): 50% | Activité anticon-vulsivante MES % protection (souris [2]; 100 mg/kg (ip), 30 min): 33,3% | Activité anticonvulsivante 1. MES (souris [2]): 60% | Endurance à la nage % d'augmentation (souris [3]): 40^** % | Score total (tremblements) (souris [4]): 146 | REPONSE CO Durée [5, 23]: 105 min | REPONSE CO Mesure à [5, 23]: 1 min | REPONSE CO Pic [5, 23]: 10 min | REPONSE CO Durée ([5]; 100 mg par voie intraveineuse): 45 min | REPONSE CO Mesure à ([5]; 100 mg par voie intraveineuse): 5 min | REPONSE CO Pic ([5]; 100 mg par voie intraveineuse): 15 min | Essai de grimpé sur un baton vertical (souris [6]): Sans effet | Cadence respira-toire (souris [7]; 50 mg/kg (ip)): sans effet | Cadence respira-toire (souris [7]; 100 mg/kg (ip), Tableau 2): augmentation | Cadence respiratoire (souris [7]): Légère augmentation | Catatonie (souris [8]): non | Activité motrice spontanée (souris [9]; 50 mg/kg (ip), souris): sans effet | Activité motrice spontanée (souris [9]; 100 mg/kg (ip), souris, Tableau 2): d'abord légère augmentation et ensuite dimi-nution légère | Activité motrice spontanée (souris [9]; [24]): Légère augmentation | LD50 [10]: > 800 mg/kg | Tension sanguine Durée (Tension sanguine; [23]): 240 min | Tension sanguine Mesure à (Tension sanguine; [23]): 1 min | Tension sanguine Pic (Tension sanguine; [23]): 15 min | Tension sanguine Durée (Tension sanguine; 100 mg par voie intraveineuse): 60 min | Tension sanguine Mesure à (Tension sanguine; 100 mg par voie intraveineuse): 1 min | Tension sanguine Pic (Tension sanguine; 100 mg par voie intraveineuse): 10 min | Activité anticonvulsivante 2.Pentylènetetrazol (souris [11]): 0% | Temps de sommeil au pentobarbital % du témoin (témoin =100) (souris [12]; 50 mg/kg (ip), 15 min): 285 % du témoin | Temps de sommeil au pentobarbital % du témoin (témoin =100) (souris [12]; 50 mg/kg (ip), 30 min): 222 % du témoin | Temps de sommeil au pentobarbital % du témoin (témoin =100) (souris [12]; 50 mg/kg (ip), 60 min): 136 % du témoin | Temps de sommeil au pentobarbital % du témoin (témoin =100) (souris [12]; [22]): 295 % du témoin | Temps de sommeil au pentobarbital % du témoin (témoin =100) (souris [12]; 100 mg/kg (ip), 30 min): 276 % du témoin | Temps de sommeil au pentobarbital % du témoin (témoin =100) (souris [12]; 100 mg/kg (ip), 60 min): 279 % du témoin | Rythme cardiaque Durée (min) (Rythme cardiaque; [23]): non mani-fes-tae jus-qu'à 240 | Rythme cardiaque Mesure à (Rythme cardiaque; [23]): 5 min | Rythme cardiaque Pic (Rythme cardiaque; [23]): 30 min | Rythme cardiaque Durée (Rythme cardiaque; 100 mg par voie intraveineuse): 60 min | Rythme cardiaque Mesure à (Rythme cardiaque; 100 mg par voie intraveineuse): 1 min | Rythme cardiaque Pic (Rythme cardiaque; 100 mg par voie intraveineuse): 30 min | Défécation (souris [13]): oui | Essai à la morphine (souris [14]): Négatif (pas d'antagonisme) | Hypersensibilité au bruit (souris [15]): oui | Performance à l'essai Rotarod Moyenne (Sec) (souris [16]): 66,2 ± 6,4 (30) Sec

désoxyfructo-sérotonine [DF-5HT, reference compound]
incorporation de 3H-DOPA par M. Leprae (M. Leprae; 1 µg/ml, Armadillo M.Leprae N°2275/5, témoins 5977): 2431 DPM | incorporation de 3H-DOPA par M. Leprae (M. Leprae; 1 µg/ml, Armadillo M.Leprae N°2275/5 Tués par la chaleur, témoins 915): 410 DPM | incorporation de 3H-DOPA par M. Leprae (M. Leprae; 1 µg/ml, Armadillo M.Leprae N°2457/103, témoins 4215): 2575 DPM | incorporation de 3H-DOPA par M. Leprae (M. Leprae; 1 µg/ml, Armadillo M.Leprae N°2457/103 Tués par la chaleur, témoins 2855): 2110 DPM | incorporation de 3H-DOPA par M. Leprae (M. Leprae; 5 µg/ml, Armadillo M.Leprae N°2275/5, témoins 5977): 2264 DPM | incorporation de 3H-DOPA par M. Leprae (M. Leprae; 5 µg/ml, Armadillo M.Leprae N°2275/5 Tués par la chaleur, témoins 915): 566 DPM | incorporation de 3H-DOPA par M. Leprae (M. Leprae; 5 µg/ml, Armadillo M.Leprae N°2457/103, témoins 4215): 1485 DPM | incorporation de 3H-DOPA par M. Leprae (M. Leprae; 5 µg/ml, Armadillo M.Leprae N°2457/103 Tués par la chaleur, témoins 2855): 1640 DPM | % Inhibition à 0°C de l'incorporation de la sérotonine dans les cellules nerveuses ([17]; 0°C): 95% | % Inhibition à 25°C de l'incorporation de la sérotonine dans les cellules nerveuses ([17]; 10-^4 Mol, 25°C): 90% | niveau du compose non transformé dans le plasma [18]: insignifiante

désoxyribulo-5-hydroxytryptophane [Désoxy ribulo-5HTP]
Activité anticonvulsivante 1. MES (souris [2]): 20% | Essai de grimpé sur un baton vertical (souris [6]): Sans effet | Quantités de 5-HT (dans tout le cerveau) [19]: 92,5 | Cadence respiratoire (souris [7]): sans effet | Activité motrice spontanée (souris [9]; [24]): sans effet | DL50 (ip)en toxicité aigue (souris [20]): > 800 mg/kg | Activité anticonvulsivante 2.Pentylènetetrazol (souris [11]): 0% | Temps de sommeil au pentobarbital % du témoin (Témoin à 100) (souris [12]; [24]): 309,2 % du témoin | Essai à la morphine (souris [14]): Négatif (pas d'antagonisme) | Activité motrice (Photactametre) (souris [21]): Augmentation pendant les 40 premières min. et ensuite diminution
